From US5574026A, “Methods for inhibiting angiogenesis proliferation of endothelial or tumor cells and tumor growth” (American Cyanamid Company, priority 1994, dated 1996)
≈ marks a conversion by molar mass, not a printed value. Where a name gives a salt, the structure may show the parent alone. Read-outs that look alike come from different tables or passages of the source.

How the values were obtained:
Assay in all cases: Antiproliferative activity in human tumor cell lines, PROTOCOL 1 and PROTOCOL 2
Type in all cases: cell-based
A2780/DDP = settings: ovarian tumor cell line /DDP, 48 hours, read-out: IC50
Description: The assays are identified as follows: PROTOCOLS 1, 2, and 3 are described in greater detail hereinbelow. In general, according to PROTOCOLS 1 and 2, the target ABAE and/or Human Tumor cells are exposed to the compounds of Formula I for 48 hours. PROTOCOL 3 exposes ABAE cells to the compounds for 4 days. A detailed description of the Protocols is as follows: Antiproliferative Activity in Human Tumor Cell Lines The antiproliferative activity of the compounds of Formula I of the present invention is evaluated in a panel comprised of human tumor cell lines. […] Cultures are renewed after 20 passages with cells from a fresh stock of batch-frozen early passage cells. Cell lines are routinely checked for mycoplasma contamination (Genprobe). In a laminar flow hood, cells (1-5×10^4) are plated into 96-well microtiter plates in a volume of 0.1 ml/well with a bulk microtiter dispenser (Denley). […] Compounds are added using a Tomtec dispenser which simultaneously dispenses from one 96-well plate, containing the drug dilutions, to the plates containing the cells. After two days of continuous drug exposure, 50% cold trichloroacetic acid (TCA) is added to 10% final concentration to fix the cells, and after 60 minutes at 4° C., the TCA is aspirated and the plates are washed 5 times with deionized water using a microtiter plate washer. […] A 0.4% solution of the dye, sulforhodamine B, in glacial acetic acid is added to the plates, and the plates are washed 5 times with 1% glacial acetic acid using the automatic plate washed. The bound stain is solubilized with 0.1 ml of 10 mMTris base. The optical densities are read from an automatic spectrophotometric plate reader (Dynatech) directly to a main frame computer (VAX 8600). Positive controls, that include standard chemotherapeutic drugs (i.e., adriamycin, cisplatin, etc.), are included in every experiment. Background optical density measurements (complete media--cells, and complete media+drug-cells) are automatically subtracted from the appropriate control and test wells. Mean values and standard errors are determined from duplicate wells. A measure is also made of the optical density at time when the drugs are added. The number of cells after treatment (P), as % of control, is calculated for every concentration of drug, as follows: [formula] wherein: T is optical density measurement for treated cells after 48 hours; C is optical density measurement for untreated cells after 48 hours; Co is optical density measurement for cells at the time of drug addition. IC50 of Growth inhibition is calculated from the sets of P values using the RS-1 data package (BBN Software). Antiproliferative Activity in Human Tumor and Adult Bovine Aortic Endothelial Cell Lines (ABAE) The antiproliferative activity of the compounds of Formula I is evaluated in a panel comprised of human tumor cell lines as listed in Protocol 1 as well as an adult bovine aortic endothelial cell line (ABAE). This assay is a modification of PROTOCOL 1.

MIP = settings: colon tumor cell line MIP, 48 hours
Description: (§1) The antiproliferative activity of the compounds of Formula I in an Adult Bovine Aortic Endothelial (ABAE) cell line and in Human Tumor cells lines is evaluated in three similar assays that measure growth inhibition. The assays are identified as follows:
(§2) PROTOCOLS 1, 2, and 3 are described in greater detail hereinbelow. In general, according to PROTOCOLS 1 and 2, the target ABAE and/or Human Tumor cells are exposed to the compounds of Formula I for 48 hours. PROTOCOL 3 exposes ABAE cells to the compounds for 4 days. A detailed description of the Protocols is as follows:
(§3) Antiproliferative Activity in Human Tumor Cell Lines
(§4) The antiproliferative activity of the compounds of Formula I of the present invention is evaluated in a panel comprised of human tumor cell lines. The human tumor cell lines are from
(§5) 2) Colon tumors: MIP, CACO2, and SW620.
(§6) All cell lines are maintained in log phase in RPMI 1640 media, supplemented with 5% fetal calf serum, penicillin/streptomycin and 2 mM L-glutamine. Cultures are renewed after 20 passages with cells from a fresh stock of batch-frozen early passage cells. Cell lines are routinely checked for mycoplasma contamination (Genprobe). In a laminar flow hood, cells (1-5×10^4) are plated into 96-well microtiter plates in a volume of 0.1 ml/well with a bulk microtiter dispenser (Denley). […] At this concentration, dimethylsulfoxide has no effect on cell growth. Compounds are added using a Tomtec dispenser which simultaneously dispenses from one 96-well plate, containing the drug dilutions, to the plates containing the cells. After two days of continuous drug exposure, 50% cold trichloroacetic acid (TCA) is added to 10% final concentration to fix the cells, and after 60 minutes at 4° C., the TCA is aspirated and the plates are washed 5 times with deionized water using a microtiter plate washer. The number of cells on the plate are quantitated using a protein dye-binding assay (Monks et al., 1991). A 0.4% solution of the dye, sulforhodamine B, in […] is added to the plates, and the plates are washed 5 times with 1% glacial acetic acid using the automatic plate washed. The bound stain is solubilized with 0.1 ml of 10 mMTris base. The optical densities are read from an automatic spectrophotometric plate reader (Dynatech) directly to a main frame computer (VAX 8600).
(§7) Positive controls, that include standard chemotherapeutic drugs (i.e., adriamycin, cisplatin, etc.), are included in every experiment.
(§8) Background optical density measurements (complete media--cells, and complete media+drug-cells) are automatically subtracted from the appropriate control and test wells. Mean values and standard errors are determined from duplicate wells. A measure is also made of the optical density at time when the drugs are added. The number of cells after treatment (P), as % of control, is calculated for every concentration of drug, as follows: [formula] wherein: T is optical density measurement for treated cells after 48 hours;
(§9) C is optical density measurement for untreated cells after 48 hours;
(§10) Co is optical density measurement for cells at the time of drug addition.
(§11) IC50 of Growth inhibition is calculated from the sets of P values using the RS-1 data package (BBN Software).
(§12) Antiproliferative Activity in Human Tumor and Adult Bovine Aortic Endothelial Cell Lines (ABAE)
(§13) The antiproliferative activity of the compounds of Formula I is evaluated in a panel comprised of human tumor cell lines as listed in Protocol 1 as well as an adult bovine aortic endothelial cell line (ABAE). This assay is a modification of PROTOCOL 1. The modifications include:
(§14) 1) each concentration for each compound is tested in a single well;
(§15) 2) compounds are tested at 20, 4, 0.8, 0.16 microgram/ml and additionally in some experiments at 100 and 0.32 microgram/ml;
(§16) 3) samples are pipetted into a 96-well plate for each of the cell lines by a Beckman Biomek 1000 SL robot; […]

CACO2 = tested on: CACO2
Description: as §1, §2, §3, §4, §5, §6, §7, §8, §9, §10, §11, §12, §13, §14, §15, §16

[1] = Caco-2, colon tumor cell line CACO2, 48 hours, read-out: IC50

SMILES | IC50 (A2780/DDP) | IC50 (MIP) | IC50 (CACO2; [1]) | IC50 (CACO2; Caco-2, 48 h)
CN(C)[C@@H]1C(O)=C(C(N)=O)C(=O)[C@@]2(O)C(O)=C3C(=O)c4c(O)ccc(Br)c4CC3CC12 (stereo partly drawn) [Example 8, [4S-(4α,12aα)]-7-Bromo-4-(dimethylamino)-1,4,4a,5,5a,-6,11,12a-octahydro-3,10,12,12a-tetrahydroxy-1,11-dioxo-2-naphthacenecarboxamide sulfate] | 0.6 µg/mL | 2 µg/mL | 2.4 µg/mL | –
CN(C)[C@@H]1C(O)=C(C(N)=O)C(=O)[C@@]2(O)C(O)=C3C(=O)c4c(O)ccc(I)c4CC3CC12 (stereo partly drawn) [Example 10, [4S-(4α,12aα)]-4-(Dimethylamino)-4,4,4a,5,5a,6,11,12a-octahydro-3,10,12,12a-tetrahydroxy-7-iodo-1,11-dioxo-2-naphthacenecarboxamide] | 4 µg/mL (≈ 7.4 µM) | 0.8 µg/mL (≈ 1.48 µM) | – | 2.8 µg/mL (≈ 5.18 µM)
CN(C)c1ccc(O)c2c1C[C@H]1C[C@H]3[C@H](N(C)C)C(O)=C(C(N)=O)C(=O)[C@@]3(O)C(O)=C1C2=O [Minocycline, reference compound] | 6.1 µg/mL (≈ 13.3 µM) | 6.1 µg/mL (≈ 13.3 µM) | 9 µg/mL (≈ 19.7 µM) | –
